Data published in US20020022657A1, “Methods for modulating neuronal cell death” (priority 1998, published 2002).

Test system: Aβ-induced toxicity
Assay: Aβ-induced toxicity, neuroprotection by Aβ-interferer (FIG. 6)
Assay type: cell-based
Details: Aβ: laminin molar ratio of 1:10^−3; internal positive control

Substance: laminin
- Aβ-induced toxicity: neuroprotective
